A word on the IC50: it is the concentration at which inhibition is half-maximal. Lower therefore signals inhibition by little substance.

For data set [1], the system named is 2F2B mouse endothelial cells. The data set is described as follows: XTT cell viability assay (cytotoxicity of peptides). In kind it is cell-based. The conditions noted are these: 2F2B cells; for IC50: 3 hours of treatment at 37° C., XTT. The method, then:
For each peptide, cytotoxicity was assessed in 2F2B mouse endothelial cells by the XTT cell viability assay (Biotium, Hayward, Calif.). Cells were seeded in 96-well plates at 10,000 cells/well 24 hours before treatment with melittin and mutated melittins at selected concentrations. After 3 hours of treatment at 37° C., 25 μl of activated XTT solution was added to each well and incubated at 37° C. for 5 hours. After 5 hours of incubation, plates were gently shaken to achieve even dye distribution. The absorbances of the samples were measured by a microplate reader (Biorad, Model 550, Hercules, Calif.) at a wavelength of 450 nm. Background was subtracted and the results were normalized to untreated control cells.

Data set [2] can be described thus: Surface plasmon resonance (Biacore X 100) binding of peptides on immobilized perfluorocarbon nanoparticles. The conditions noted are these: read-out: dissociation constant. The method, then: (§1) In order to evaluate whether linker peptide 1 (LP1) and linker peptide 2 (LP2) still retained high affinity on a lipid monolayer of the nanoparticles, surface plasmon resonance (SPR) studies were performed by using Biacore X 100 (Biacore Inc, Piscataway, N.J.). The binding kinetics and affinity of LP1 and LP2 on two type of nanoparticles were studied. One type was perfluorocarbon nanoparticles (e.g., perfluorooctylbromide, PFOB), the other type was oil-based (safflower core) nanoparticles. PBS (Ca^2+ and Mg^2+ free) was used as the running buffer. Nanoparticles were immobilized on Biacore sensor chip L1 by injecting nanoparticles at a flow rate of 1 μl/min for 30 minutes, followed by a running buffer wash at a flow rate of 100 μl/min for 50 seconds. Peptides in selected concentrations, prepared in running buffer, were then injected at a flow rate of 30 μl/min for 1 minute. At the end of each experiment, the sensor chip surface was regenerated by injection of 3-[(3-cholamidopropyl)dimethylammonio]-1-propanesulfonate (CHAPS) at a flow rate of 100 μl/min for 24 seconds.
The binding kinetics of the resulting VCAM-targeting peptides (i.e., TCP1 and TCP2) on perfluorocarbon nanoparticles were examined using Biacore X 100. PBS (Ca^2+ and Mg^2+ free) was used as the running buffer. Nanoparticles were immobilized on Biacore sensor chip L1 by injecting nanoparticles at a flow rate of 1 μl/min for 30 minutes, followed by a running buffer wash at a flow rate of 100 μl/min for 50 seconds. Targeting peptide prepared at selected concentrations in running buffer was sequentially injected at a flow rate of 30 μl/min for 1 minute. At the end of each experiment, the sensor chip surface was regenerated by injection of 3-[(3-cholamidopropyl)dimethylammonio]-1-propanesulfonate (CHAPS) at a flow rate of 100 μl/min for 24 seconds. FIG. 8 presents selected sensorgrams at several different concentrations of the two VCAM-targeting peptides. The dissociation constant of TCP1 and TCP2 were 0.13 μM and 0.04 μM, respectively.

The nature of data set [3]: Surface plasmon resonance (Biacore X 100) binding of peptides on immobilized oil-based nanoparticles. As to conditions: sensor chip L1, read-out: dissociation constant. The method, then: as §1
For orientation: SPR reads the build-up and loss of mass on a sensor chip optically.

A short description of data set [4]: Dissociation of loaded peptide from PFOB nanoparticles (tryptophan fluorescence of supernatant). In kind it is physicochemical. As to conditions: stored at 4° C., up to 70 hours after loading. Here is the method: The dissociation of the peptide from linker peptide 1-loaded PFOB nanoparticles is depicted in FIG. 4. After being loaded with the linker peptide 1, the loaded PFOB nanoparticles were stored at 4° C. for 30 minutes, 1 hour, 2 hours, 4 hours, 22 hours, 46 hours, and 70 hours. The loaded nanoparticles were centrifuged at 100 g for 10 minutes, and the dissociated linker peptide 1 was measured by using tryptophan fluorescence after excitation at 280 nm in a fluorescent spectrofluorometer (Varian Inc, Palo Alto, Calif.).
FIG. 9 presents the dissociation of TCP1 or TCP2 from loaded PFOB nanoparticles as a function of time after loading. After loaded with TCP1 or TCP2, the PFOB nanoparticles were stored at 4° C. for 30 minutes, 1 hour, 2 hours, 4 hours, 22 hours, 46 hours, and 70 hours. The stored nanoparticles were then centrifuged at 100 g for 10 minutes and dissociated TCP1 or TCP2 was measured using tryptophan fluorescence after excitation at 280 nm in a fluorescent spectrofluorometer (Varian Inc, Palo Alto, Calif.).

Data set [5] can be described thus: Dynamic light scattering size and zeta potential of peptide-loaded PFOB/PFC nanoparticles. In kind it is physicochemical. As to conditions: for zeta potential: PFOB nanoparticles after incorporating the peptide (plain nanoparticles −17.62 mV); for average hydrodynamic diameter: PFOB nanoparticles with versus without inserted peptide. Here is the method: (§2) The size distributions of the nanoparticles with or without the linker peptide were analyzed by dynamic light scattering (Brookhaven Instruments Corp., Holtsville, N.Y.). Zeta potential (ζ) values were determined with a Brookhaven Instruments PALS Zeta Potential Analyzer (Brookhaven Instruments Corp., Holtsville, N.Y.). Data were acquired in the phase-analysis light scattering (PALS) mode following solution equilibration at 25° C. […] This change further confirms the insertion of the linker peptide 1 into the PFOB nanoparticles. Furthermore, the structural integrity of linker peptide 1 inserted PFOB nanoparticles was confirmed by transmission electron microscopy.
The size distributions of the nanoparticles with or without cargo incorporated were analyzed by dynamic light scattering (Brookhaven Instruments Corp., Holtsville, N.Y.). The size distribution was plotted by particle number. Zeta potential (ζ) values were determined with a Brookhaven Instruments PALS Zeta Potential Analyzer (Brookhaven Instruments Corp., Holtsville, N.Y.). Data were acquired in the phase-analysis light scattering (PALS) mode following solution equilibration at 25° C.

A short description of data set [6]: Dynamic light scattering size and zeta potential of peptide-loaded liposomes. In kind it is physicochemical. Here is the method: as §2
The interactions between linker peptide 1 and liposomes are depicted in FIG. 6. […] This change further confirms that the linker peptide 1 inserted into the liposomes.

[7] abbreviates: on perfluorocarbon nanoparticles, sensor chip L1.

“And” between values parts separate entries of the source, which are not always exact repeats. Equal entries are not always repeated.

In data set [1], `CC[C@H](C)[C@H](NC(=O)CNC(C)=O)C(=O)NCC(=O)N[C@@H](C)C(=O)N[C@@H](Cc1c[nH]c2ccccc12)C(=O)N[C@@H](CC(C)C)C(=O)N[C@@H](CCCCN)C(=O)N[C@H](C(=O)N[C@@H](CC(C)C)C(=O)N[C@H](C(=O)N[C@H](C(=O)NCC(=O)N[C@@H](CC(C)C)C(=O)N1CCC[C@H]1C(=O)N[C@@H](C)C(=O)N[C@@H](CC(C)C)C(=O)N[C@H](C(=O)N[C@@H](CO)C(=O)N[C@@H](Cc1c[nH]c2ccccc12)C(=O)N[C@H](C(=O)N[C@@H](CCCCN)C(=O)N[C@@H](CCCNC(=N)N)C(=O)N[C@@H](CCCCN)C(=O)N[C@@H](CCCNC(=N)N)C(=O)N[C@@H](CCC(N)=O)C(=O)N[C@@H](CCC(N)=O)C(N)=O)[C@@H](C)CC)[C@@H](C)CC)[C@@H](C)O)[C@@H](C)O)C(C)C` [Peptide P1] gave an IC50 of 750 ± 40 nM.

Turning to `CC[C@H](C)[C@H](NC(=O)CNC(C)=O)C(=O)NCC(=O)N[C@@H](C)C(=O)N[C@H](C(=O)N[C@@H](CC(C)C)C(=O)N[C@@H](CCCCN)C(=O)N[C@H](C(=O)N[C@@H](CC(C)C)C(=O)N[C@H](C(=O)N[C@H](C(=O)NCC(=O)N[C@@H](CC(C)C)C(=O)N[C@@H](C)C(=O)N[C@@H](C)C(=O)N[C@@H](CC(C)C)C(=O)N[C@H](C(=O)N[C@@H](CO)C(=O)N[C@@H](Cc1c[nH]c2ccccc12)C(=O)N[C@H](C(=O)N[C@@H](CCCCN)C(=O)N[C@@H](CCCNC(=N)N)C(=O)N[C@@H](CCCCN)C(=O)N[C@@H](CCCNC(=N)N)C(=O)N[C@@H](CCC(N)=O)C(=O)N[C@@H](CCC(N)=O)C(N)=O)[C@@H](C)CC)[C@@H](C)CC)[C@@H](C)O)[C@@H](C)O)C(C)C)C(C)C` [Peptide P2], in data set [1], the “cytotoxicity among the modified peptides (FIG. 2)” value is “least cytotoxicity” and it took 26600 ± 560 nM to reach half-maximal inhibition (IC50). The Kd in data set [2] (setting [7]) was found to be 5.48 nM. For the same molecule, the Kd in data set [3] is 0.64 nM.

Turning to `CC[C@H](C)[C@H](NC(=O)[C@H](CC(C)C)NC(=O)[C@H](C)NC(=O)[C@@H]1CCCN1C(=O)[C@H](CC(C)C)NC(=O)CNC(=O)[C@@H](NC(=O)[C@@H](NC(=O)[C@H](CC(C)C)NC(=O)[C@@H](NC(=O)[C@H](CCCCN)NC(=O)[C@H](CC(C)C)NC(=O)[C@@H](NC(C)=O)C(C)C)C(C)C)[C@@H](C)O)[C@@H](C)O)C(=O)N[C@@H](CO)C(=O)N[C@@H](Cc1c[nH]c2ccccc12)C(=O)N[C@H](C(=O)N[C@@H](CCCCN)C(=O)N[C@@H](CCCNC(=N)N)C(=O)N[C@@H](CCCCN)C(=O)N[C@@H](CCCNC(=N)N)C(=O)N[C@@H](CCC(N)=O)C(=O)N[C@@H](CCC(N)=O)C(N)=O)[C@@H](C)CC` [Peptide P3], the IC50 in data set [1] is 14400 ± 920 nM.

With `CC[C@H](C)[C@H](NC(=O)[C@H](CC(C)C)NC(=O)[C@H](C)NC(=O)[C@@H]1CCCN1C(=O)[C@H](CC(C)C)NC(=O)CNC(=O)[C@@H](NC(=O)[C@@H](NC(=O)[C@H](CC(C)C)NC(=O)[C@@H](NC(C)=O)C(C)C)[C@@H](C)O)[C@@H](C)O)C(=O)N[C@@H](CO)C(=O)N[C@@H](Cc1c[nH]c2ccccc12)C(=O)N[C@H](C(=O)N[C@@H](CCCCN)C(=O)N[C@@H](CCCNC(=N)N)C(=O)N[C@@H](CCCCN)C(=O)N[C@@H](CCCNC(=N)N)C(=O)N[C@@H](CCC(N)=O)C(=O)N[C@@H](CCC(N)=O)C(N)=O)[C@@H](C)CC` [Peptide P4, VLTTGLPALISWIKRKRQQ], the “loaded peptide dissociated from the PFOB nanoparticles” value in data set [4] is recorded as less than 10%. The “cytotoxicity among the modified peptides (FIG. 2)” value in data set [1] is recorded as “least cytotoxicity”. Moreover, the IC50 in data set [1] was 114000 nM and 115000 nM. The “decrease in cytotoxicity compared to MMLT” value in data set [1] (ratio of cytotoxicity index (IC50)) is roughly 50 fold. Besides, the cell toxicity entry in data set [1] (up to a concentration of 90 μM) is “essentially no cell toxicity”. The Kd in data set [2] (setting [7]) is 225 nM; in data set [3], 22.9 nM. Also, the values for the zeta potential entry in data set [5] and in data set [6] (liposomes after incorporating the peptide (plain liposomes −36.73 mV)) were “+23.33 mV” and −29.843 mV, respectively. Also, the average hydrodynamic diameter result in data set [5] and in data set [6] (liposomes with versus without inserted peptide) was “not affected” each time.

Consider `CC[C@H](C)[C@H](NC(=O)CNC(C)=O)C(=O)NCC(=O)N[C@@H](C)C(=O)N[C@H](C(=O)N[C@@H](CC(C)C)C(=O)N[C@@H](CCCCN)C(=O)N[C@H](C(=O)N[C@@H](CC(C)C)C(=O)N[C@H](C(=O)N[C@H](C(=O)NCC(=O)N[C@@H](CC(C)C)C(=O)N1CCC[C@H]1C(=O)N[C@@H](C)C(=O)N[C@@H](CC(C)C)C(=O)N[C@H](C(=O)N[C@@H](CO)C(=O)N[C@@H](Cc1c[nH]c2ccccc12)C(=O)N[C@H](C(=O)N[C@@H](CCCCN)C(=O)N[C@@H](CCCNC(=N)N)C(N)=O)[C@@H](C)CC)[C@@H](C)CC)[C@@H](C)O)[C@@H](C)O)C(C)C)C(C)C` [Peptide P5], for which, in data set [1], 6410 ± 640 nM corresponded to half-maximal inhibition (IC50).

As for VHPKQHRggVLTTGLPALISWIKR [TCP2], the Kd in data set [2] (VCAM-targeting peptides on perfluorocarbon nanoparticles) came to 40 nM. Further, in data set [5], the zeta potential was determined as 12.43 mV and the average hydrodynamic diameter entry is reported as “not affected”.

The record behind these values is patent US8617516B2, “Universal anchor peptide for nanoparticles” (Washington University, priority 2008, dated 2013).
